According to patent publication US20140162980A1, “NOVEL MICROBIOCIDAL DIOXIME ETHER DERIVATIVES” (SYNGENTA CROP PROTECTION LLC, priority 2010, published 2014):

Assays:
Pyrenophora teres = Pyrenophora teres / barley / leaf disc preventative (net blotch); assay type: in vivo; conditions: foliar, barley leaf segments cv Hasso, inoculated two days after application, assessed 5-7 days after application, read-out: control of Pyrenophora teres (disease control compared to untreated)
Description: Pyrenophora Teres/Barley/Leaf Disc Preventative (Net Blotch): Barley leaf segments cv Hasso are placed on agar in a 24-well plate and sprayed with formulated test compound diluted in water at an application rate of 200 ppm. The leaf segments are inoculated with a spore suspension of the fungus two days after application of the test solution. The inoculated leaf segments are incubated at 20° C. and 65% relative humidity under a light regime of 12/12 h (light/dark) in a climate cabinet and the activity of a compound is assessed as disease control compared to untreated when an appropriate level of disease damage appears in untreated check leaf segments (5-7 days after application).

Sclerotinia sclerotiorum = Sclerotinia sclerotiorum / liquid culture (cottony rot); assay type: cell-based; conditions: PDB potato dextrose broth, 24° C., 3-4 days after application, read-out: control of Sclerotinia sclerotiorum (inhibition of growth, photometrically)
Description: Sclerotinia Sclerotiorum/Liquid Culture (Cottony Rot) Mycelia fragments of a newly grown liquid culture of the fungus are directly mixed into nutrient broth (PDB potato dextrose broth). After placing a (DMSO) solution of test compound into a microtiter plate at an application rate 200 ppm (96-well format) the nutrient broth containing the fungal material is added. The test plates are incubated at 24° C. and the inhibition of growth is determined photometrically 3-4 days after application.

[1] = system: Thanatephorus cucumeris (Rhizoctonia solani); assay: Thanatephorus cucumeris (Rhizoctonia solani) / liquid culture (foot rot, damping-off); assay type: cell-based; conditions: PDB potato dextrose broth, 24° C., 3-4 days after application, read-out: control of Thanatephorus cucumeris (inhibition of growth, photometrically)
Description: Thanatephorus Cucumeris (Rhizoctonia solani)/Liquid Culture (Foot Rot, Damping-Off): Mycelia fragments of a newly grown liquid culture of the fungus are directly mixed into nutrient broth (PDB potato dextrose broth). After placing a DMSO solution of the test compounds into a 96-well microtiter plate at an application rate 200 ppm, the nutrient broth containing the fungal material was added. The test plates were incubated at 24° C. and the inhibition of growth was determined photometrically 3-4 days after application.

[2] = system: Puccinia recondita f. sp. tritici; assay: Puccinia recondita f. sp. tritici / wheat / leaf disc preventative (brown rust); assay type: in vivo; conditions: foliar, wheat leaf segments cv Kanzler, inoculated 1 day after application, assessed 7-9 days after application, read-out: control of Puccinia recondita f. sp. tritici, preventative (percent disease control compared to untreated)
Description: Puccinia Recondita f. Sp. Tritici/Wheat/Leaf Disc Preventative (Brown Rust): Wheat leaf segments cultivated variety (cv) Kanzler were placed on agar in 24-well plates and sprayed with formulated test compound diluted in water at an application rate of 200 ppm. The leaf disks were inoculated with a spore suspension of the fungus 1 day after application. The inoculated leaf segments were incubated at 19° C. and 75% relative humidity under a light regime of 12/12 h (light/dark) in a climate cabinet and the activity of a compound was assessed as percent disease control compared to untreated when an appropriate level of disease damage appears in untreated check leaf segments (7-9 days after application).

[3] = system: Botryotinia fuckeliana (Botrytis cinerea); assay: Botryotinia fuckeliana (Botrytis cinerea) / liquid culture (gray mould); assay type: cell-based; conditions: Vogels broth, 24° C., 3-4 days after application, read-out: control of Botryotinia fuckeliana (inhibition of growth, photometrically)
Description: Botryotinia Fuckeliana (Botrytis cinerea)/Liquid Culture (Gray Mould): Conidia of the fungus from cryogenic storage were directly mixed into nutrient broth (Vogels broth). After placing a DMSO solution of test compound into a 96-well microtiter plate at an application rate 200 ppm, the nutrient broth containing the fungal spores was added. The test plates were incubated at 24° C. and the inhibition of growth was determined photometrically 3-4 days after application.

[4] = system: Blumeria graminis f. sp. tritici (Erysiphe graminis f. sp. tritici); assay: Blumeria graminis f. sp. tritici / wheat / leaf disc preventative (powdery mildew on wheat); assay type: in vivo; conditions: foliar, wheat leaf segments cv. Kanzler, inoculated 1 day after application, assessed 6-8 days after application, read-out: control of Blumeria graminis (percent disease control compared to untreated)
Description: Blumeria Graminis f. Sp. Tritici (Erysiphe Graminis f. Sp. Tritici)/Wheat/Leaf Disc Preventative (Powdery Mildew on Wheat):
Wheat leaf segments cv. Kanzler were placed on agar in a 24-well plate and sprayed with the formulated test compound diluted in water at an application rate of 200 ppm. The leaf disks were inoculated by shaking powdery mildew infected plants above the test plates 1 day after application. The inoculated leaf disks were incubated at 20° C. and 60% relative humidity under a light regime of 24 h darkness followed by 12 h/12 h (dark/light) in a climate chamber and the activity of a compound was assessed as percent disease control compared to untreated when an appropriate level of disease damage appears on untreated check leaf segments (6-8 days after application). The following compounds gave at least 80% control of Blumeria graminis: […]

[5] = system: Puccinia recondita f. sp. tritici; assay: Puccinia recondita f. sp. tritici / wheat / leaf disc curative (brown rust); assay type: in vivo; conditions: foliar, 200 ppm applied 1 day after inoculation, wheat leaf segments cv Kanzler, assessed 6-8 days after application, read-out: control of Puccinia recondita f. sp. tritici, curative (percent disease control compared to untreated)
Description: Puccinia Recondita f. Sp. Tritici/Wheat/Leaf Disc Curative (Brown Rust): Wheat leaf segments cv Kanzler were placed on agar in 24-well plates. The leaf segments were inoculated with a spore suspension of the fungus. The plates were stored in darkness at 19° C. and 75% relative humidity. The formulated test compound diluted in water was applied at an application rate of 200 ppm 1 day after inoculation.

[6] = system: Magnaporthe grisea (Pyricularia oryzae); assay: whole plant or invertebrate; assay type: in vivo; conditions: foliar, read-out: control of Magnaporthe grisea (percent disease control compared to untreated)
Alternaria solani = Alternaria solani / tomato / leaf disc (early blight); assay type: in vivo; conditions: foliar, tomato leaf disks cv. Baby, inoculated 2 days after application, assessed 5-7 days after application, read-out: control of Alternaria solani (percent disease control compared to untreated)
Description: Alternaria Solani/Tomato/Leaf Disc (Early Blight): Tomato leaf disks cv. Baby are placed on agar in multiwell plates (24-well format) and sprayed with the formulated test compound diluted in water at an application rate of 200 ppm. The leaf disks are inoculated with a spore suspension of the fungus 2 days after application. The inoculated leaf disks are incubated at 23° C./21° C.

[7] = system: Phaeosphaeria nodorum (Septoria nodorum); assay: Phaeosphaeria nodorum (Septoria nodorum) / wheat / leaf disc preventative (glume blotch); assay type: in vivo; conditions: Parastagonospora nodorum, foliar, wheat leaf segments cv Kanzler, inoculated 2 days after application, assessed 5-7 days after application, read-out: control of Phaeosphaeria nodorum (percent disease control compared to untreated)
Description: Phaeosphaeria Nodorum (Septoria nodorum)/Wheat/Leaf Disc Preventative (Glume Blotch): Wheat leaf segments cv Kanzler were placed on agar in a 24-well plate and sprayed with formulated test compound diluted in water at an application rate of 200 ppm. The leaf disks are inoculated with a spore suspension of the fungus 2 days after application. The inoculated test leaf disks are incubated at 20° C. and 75% relative humidity under a light regime of 12/12 h (light/dark) in a climate cabinet and the activity of a compound is assessed as percent disease control compared to untreated when an appropriate level of disease damage appears in untreated check leaf disks (5-7 days after application).

Phytophthora infestans = assay: whole plant or invertebrate; assay type: in vivo; conditions: in Solanum lycopersicum, foliar, read-out: control of Phytophthora infestans (percent disease control compared to untreated)
Plasmopara viticola = assay: whole plant or invertebrate; assay type: in vivo; conditions: foliar, read-out: control of Plasmopara viticola (percent disease control compared to untreated)
Pythium ultimum = Pythium ultimum / liquid culture (seedling damping off); assay type: cell-based; conditions: Globisporangium ultimum, PDB potato dextrose broth, 24° C., 2-3 days after application, read-out: control of Pythium ultimum (inhibition of growth, photometrically)
Description: Pythium Ultimum/Liquid Culture (Seedling Damping Off): Mycelia fragments and oospores of a newly grown liquid culture of the fungus were directly mixed into nutrient broth (PDB potato dextrose broth). After placing a DMSO solution of test compound into a 96 well microtiter plate at an application rate 200 ppm, the nutrient broth containing the fungal mycelia/spore mixture was added. The test plates were incubated at 24° C. and the inhibition of growth was determined photometrically 2-3 days after application.

Row | Compound | pest or weed control at 200 ppm (Pyrenophora teres) [%] | inhibition at 200 ppm (Sclerotinia sclerotiorum) [%] | inhibition at 200 ppm [1] [%] | pest or weed control at 200 ppm [2] [%] | inhibition at 200 ppm [3] [%] | pest or weed control at 200 ppm [4] [%] | pest or weed control at 200 ppm [5] [%] | pest or weed control at 200 ppm [6] [%] | pest or weed control at 200 ppm (Alternaria solani) [%] | pest or weed control at 200 ppm [7] [%] | pest or weed control at 200 ppm (Phytophthora infestans) [%] | pest or weed control at 200 ppm (Plasmopara viticola) [%] | inhibition at 200 ppm (Pythium ultimum) [%] | melting point [°C]
1 | Cc1ccc2c(n1)/C(=N/OCCCO/N=C1\CCCc3cc4c(nc31)CCCC4)CCC2 [P.39] | ≥ 80 | ≥ 80 | ≥ 80 | ≥ 80 | ≥ 80 | ≥ 80 | ≥ 80 | ≥ 80 | ≥ 80 | ≥ 80 | ≥ 80 | ≥ 80 | ≥ 80 | 
2 | Clc1ccc2c(n1)/C(=N/OCC1(CO/N=C3\CCc4ccc(Cl)nc43)CC1)CC2 [P.21] |  |  |  |  |  |  |  |  |  |  |  |  |  | 170 to 173
3 | Cc1ccc2c(n1)/C(=N/OCCCO/N=C1\CCCc3c(C(F)F)cc(C)nc31)CCC2 [P.46] | ≥ 80 | ≥ 80 |  | ≥ 80 | ≥ 80 | ≥ 80 | ≥ 80 | ≥ 80 |  | ≥ 80 |  |  | ≥ 80 | 
4 | c1c2c(nc3c1CCC/C3=N\OCCCO/N=C1\CCCc3cc4c(nc31)CCCC4)CCCC2 [P.51] | ≥ 80 | ≥ 80 | ≥ 80 | ≥ 80 | ≥ 80 | ≥ 80 |  | ≥ 80 |  | ≥ 80 | ≥ 80 |  | ≥ 80 | 
5 | c1c2c(nc3c1CCC/C3=N\OCC1(CO/N=C3\CCCc4cc5c(nc43)CCCC5)CC1)CCCC2 [P.49] |  | ≥ 80 | ≥ 80 | ≥ 80 | ≥ 80 | ≥ 80 |  | ≥ 80 |  | ≥ 80 | ≥ 80 |  |  | 
6 | c1ccc(-c2c3c(nc4ccccc24)/C(=N/OCCCO/N=C2\CCCc4c2nc2ccccc2c4-c2ccccc2)CCC3)cc1 [P.26] |  |  |  |  |  |  |  |  |  |  |  |  |  | 205 to 210
7 | Cc1ccc2c(n1)/C(=N/OCC(C)(C)CO/N=C1\CCCc3cc4c(nc31)CCCC4)CCC2 [P.40] | ≥ 80 | ≥ 80 | ≥ 80 | ≥ 80 | ≥ 80 | ≥ 80 | ≥ 80 | ≥ 80 | ≥ 80 | ≥ 80 | ≥ 80 | ≥ 80 | ≥ 80 | 
8 | Cc1ccc2c(n1)/C(=N/OCCCO/N=C1\CCCc3c1nc1ccccc1c3C)CCC2 [P.37] | ≥ 80 | ≥ 80 | ≥ 80 | ≥ 80 | ≥ 80 | ≥ 80 | ≥ 80 | ≥ 80 | ≥ 80 | ≥ 80 |  | ≥ 80 | ≥ 80 | 
9 | Cc1ccc2c(n1)/C(=N/OCC(C)(C)CO/N=C1\CCCc3c1nc1ccccc1c3C)CCC2 [P.38] | ≥ 80 | ≥ 80 | ≥ 80 | ≥ 80 | ≥ 80 | ≥ 80 | ≥ 80 | ≥ 80 | ≥ 80 | ≥ 80 | ≥ 80 | ≥ 80 | ≥ 80 | 
